# Legend:
# [1] = test system: human lymphoma cells; assay: [^3H]Thymidine incorporation assay using Re-EC-G and a lymphoma cell line; type: cell-based; conditions: in vitro cell culture, dose response curve (FIG. 3)
# [2] = In vivo imaging studies of EC-G; conditions: comparison of aqueous and organic synthesized EC-G
# [3] = test system: tumor cells; assay: Cellular uptake of ^99mTc-EC-G in tumor cells; type: cell-based
# Description: (§1) To further validate EC-G biological activity, in vitro cell culture assays were performed. Briefly, the cellular uptake was determined in tumor cells (50,000 cells/well) incubated with ^99mTc-EC-G (2 μCi/well) at various time intervals. […] There was a 10-15% decrease in cellular uptake using ^99mTc-EC-G after 2-4 weeks. The useful life of EC-G in water appears to be 17.26 days.
# [4] = In vitro stability of EC-G dissolved in water; type: physicochemical
# Description: as §1
# [5] = test system: New Zealand white rabbit; assay: PET imaging in a New Zealand white rabbit; type: in vivo; conditions: PET coronal images 45 minutes after injection of 0.66 mCi
# Description: The numbers are heart/upper mediastinum (H/UM) count density (count/pixel) ratios at 15-45 minutes. […] A rabbit was administered ^68Ga-EC-trimethyl lysine (EC-TML). PET coronal images were acquired at 45 minutes after injection of 0.66 mCi of ^68Ga-EC-TML (dorsal to ventral order).
substance,measurement,setting,value
rhenium-ethylenedicysteine-glucosamine [Re-EC-G],activity against human lymphoma cells,[1],effective
"N,N′-ethylenedicysteine-glucosamine [EC-G]","in vivo imaging, EC-G from aqueous versus organic synthesis",[2],no marked difference
same,"in vitro uptake, aqueous versus organic synthesized EC-G",[3]; comparison of aqueous and organic synthesized EC-G,no marked difference
same,"cellular uptake, raw (unpurified) EC-G versus prep-HPLC purified EC-G","[3]; tumor cells 50,000 cells/well, ^99mTc-EC-G 2 μCi/well, various time intervals (FIG. 4)",no marked difference
same,useful life of EC-G in water,[4],17.26 days
^68Ga-EC-trimethyl lysine [^68Ga-EC-TML],uptake in the heart,[5],High uptake
